Source: US20220213092A1, “BICYCLIC PYRAZOLE BRUTON'S TYROSINE KINASE INHIBITORS” (AbbVie Inc., priority 2020, published 2022)

Target: ERBB4 (Homo sapiens, UniProt Q15303)
Experiment: biochemical
Method: Kinase activity, unless otherwise indicated, was measured in vitro using an electrophoretic mobility shift assay (MSA). The phosphorylation of a peptide substrate by BTK and other kinases was measured. The kinase reactions were assembled in a total volume of 25 μL per well in 384 well plates. The following was added to each well: compound buffer (or control); enzyme buffer; and substrate buffer, as further described below.
Enzyme and compound/inhibitor were optionally pre-incubated. To each well was added: 8 μL of 2.5×ATP and substrate in 1× Master Buffer (1× Master Buffer as described above). The plate was incubated at room temperature for 3 hours. […] OG488 was Oregon Green dye, which was conjugated to the peptide substrate. […] The kinase activity for the kinases in Table 3 were measured at 3 hours incubation time, except that in the case of MAP2K1 and MAP2K2 assay, pre-activation of ERK was done for 30 min with 6 μM of ATP, and then the detection of activated ERK in the presence of compounds was done after 60 minutes of incubation.
The terminated reactions were analyzed using a 12 channel LABCHIP® 3000 microfluidic detection instrument (available from Caliper Life Sciences, Waltham, Mass.). […] Change in the relative fluorescence intensity of the substrate and product peaks was the parameter measured, reflecting enzyme activity. […]

Sequence of ERBB4 (Q15303 26-1308, species assumed): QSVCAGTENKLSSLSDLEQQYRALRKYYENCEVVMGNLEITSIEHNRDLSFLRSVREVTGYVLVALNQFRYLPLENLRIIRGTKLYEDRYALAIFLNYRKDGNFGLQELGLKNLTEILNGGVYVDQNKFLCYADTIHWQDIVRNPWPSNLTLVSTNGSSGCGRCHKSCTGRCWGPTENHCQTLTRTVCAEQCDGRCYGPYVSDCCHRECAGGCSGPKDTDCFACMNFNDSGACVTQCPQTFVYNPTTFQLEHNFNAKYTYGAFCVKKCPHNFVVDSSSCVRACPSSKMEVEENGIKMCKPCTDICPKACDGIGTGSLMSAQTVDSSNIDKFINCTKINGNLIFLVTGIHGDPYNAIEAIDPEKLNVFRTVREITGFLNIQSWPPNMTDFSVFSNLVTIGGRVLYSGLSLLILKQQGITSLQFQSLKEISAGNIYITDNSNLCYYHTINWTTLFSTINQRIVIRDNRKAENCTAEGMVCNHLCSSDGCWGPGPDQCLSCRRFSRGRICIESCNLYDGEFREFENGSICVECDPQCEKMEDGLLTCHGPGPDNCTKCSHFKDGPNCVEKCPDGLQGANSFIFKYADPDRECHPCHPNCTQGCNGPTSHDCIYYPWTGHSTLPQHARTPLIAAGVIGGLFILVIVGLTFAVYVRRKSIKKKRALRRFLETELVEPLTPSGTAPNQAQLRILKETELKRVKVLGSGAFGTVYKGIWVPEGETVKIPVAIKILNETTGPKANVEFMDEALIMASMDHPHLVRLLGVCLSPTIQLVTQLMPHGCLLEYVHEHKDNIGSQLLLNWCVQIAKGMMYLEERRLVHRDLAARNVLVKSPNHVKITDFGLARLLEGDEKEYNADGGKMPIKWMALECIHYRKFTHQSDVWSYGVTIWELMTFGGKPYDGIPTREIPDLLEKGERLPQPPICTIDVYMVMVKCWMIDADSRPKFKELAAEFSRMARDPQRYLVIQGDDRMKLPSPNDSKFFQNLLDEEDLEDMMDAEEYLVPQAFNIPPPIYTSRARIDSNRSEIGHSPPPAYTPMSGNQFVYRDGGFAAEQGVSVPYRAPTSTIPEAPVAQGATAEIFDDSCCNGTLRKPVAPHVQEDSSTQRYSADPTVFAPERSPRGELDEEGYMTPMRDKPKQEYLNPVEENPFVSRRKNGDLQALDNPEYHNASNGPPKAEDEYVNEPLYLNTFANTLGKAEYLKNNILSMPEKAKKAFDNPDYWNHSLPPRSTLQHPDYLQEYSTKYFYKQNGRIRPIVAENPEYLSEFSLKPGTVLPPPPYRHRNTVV

IC50: 757 nM
Structure (SMILES): C=CC(=O)N1CCN([C@@H]2CCNc3c2nn(-c2ccc(Oc4ccccc4)cc2)c3C(N)=O)CC1 [Example 6, (7R)-2-(4-phenoxyphenyl)-7-[4-(prop-2-enoyl)piperazin-1-yl]-4,5,6,7-tetrahydro-2H-pyrazolo[4,3-b]pyridine-3-carboxamide]
